Calls of active or inactive are those of the source. No cut-off for these calls is given here.
Key:
[1] = target: Estrogen receptor beta (Homo sapiens) (UniProt Q92731); assay: ERbeta In-house nuclear receptor screen; settings: Compound concentration 3.0 uM
[2] = target: Proto-oncogene tyrosine-protein kinase Src (Homo sapiens) (UniProt P12931); assay: SRC Invitrogen kinase panel; settings: Compound concentration 10.0 uM
[3] = target: Mitogen-activated protein kinase 12 (Homo sapiens) (UniProt P53778); assay: p38gamma Invitrogen kinase panel; settings: Compound concentration 10.0 uM
[4] = target: Rho-associated protein kinase 1 (Homo sapiens) (UniProt Q13464); assay: ROCK_I Invitrogen kinase panel; settings: Compound concentration 10.0 uM
[5] = target: Dual specificity protein kinase CLK2 (Homo sapiens) (UniProt P49760); assay: CLK2 Invitrogen kinase panel; settings: Compound concentration 10.0 uM
[6] = target: T1, Muscarinic acetylcholine receptor M1 (Homo sapiens) (UniProt P11229); assay: M1 (h) CEREP screen
T1 sequence (whole entry): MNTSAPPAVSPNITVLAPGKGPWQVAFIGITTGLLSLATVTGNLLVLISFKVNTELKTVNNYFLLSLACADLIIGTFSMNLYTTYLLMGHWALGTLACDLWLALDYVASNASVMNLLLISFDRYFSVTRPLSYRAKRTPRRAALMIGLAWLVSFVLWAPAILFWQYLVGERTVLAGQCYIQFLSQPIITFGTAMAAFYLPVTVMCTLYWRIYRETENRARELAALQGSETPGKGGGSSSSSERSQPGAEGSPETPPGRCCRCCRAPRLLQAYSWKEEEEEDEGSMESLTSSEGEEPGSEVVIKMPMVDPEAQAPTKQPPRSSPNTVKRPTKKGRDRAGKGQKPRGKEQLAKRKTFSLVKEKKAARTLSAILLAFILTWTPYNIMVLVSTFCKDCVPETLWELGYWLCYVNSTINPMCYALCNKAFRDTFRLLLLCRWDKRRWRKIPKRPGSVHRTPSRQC

[7] = target: D(4) dopamine receptor (Homo sapiens) (UniProt P21917); settings: Compound concentration 10.0 uM
[8] = target: 5-hydroxytryptamine receptor 6 (Homo sapiens) (UniProt P50406); settings: Compound concentration 10.0 uM
[9] = target: Thyroid hormone receptor alpha (Homo sapiens) (UniProt P10827); assay: TRalpha Indigo Bioscience nuclear receptor screen; settings: Compound concentration 0.3 uM
[10] = target: 5-hydroxytryptamine receptor 2C (Homo sapiens) (UniProt P28335); settings: Compound concentration 10.0 uM
[11] = target: Serine/threonine-protein kinase PAK 4 (Homo sapiens) (UniProt O96013); assay: PAK4 Invitrogen kinase panel; settings: Compound concentration 10.0 uM
[12] = target: D(1B) dopamine receptor (Homo sapiens) (UniProt P21918); settings: Compound concentration 10.0 uM
[13] = target: 5-hydroxytryptamine receptor 2A (Homo sapiens) (UniProt P28223); settings: Compound concentration 10.0 uM
Glucocorticoid receptor = Glucocorticoid receptor (Homo sapiens, UniProt P04150); assay: (§1) GR In-house nuclear receptor screen
[14] = target: T2, Glucocorticoid receptor (Homo sapiens) (UniProt P04150); assay: as §1; settings: Compound concentration 3.0 uM
T2 sequence (whole entry): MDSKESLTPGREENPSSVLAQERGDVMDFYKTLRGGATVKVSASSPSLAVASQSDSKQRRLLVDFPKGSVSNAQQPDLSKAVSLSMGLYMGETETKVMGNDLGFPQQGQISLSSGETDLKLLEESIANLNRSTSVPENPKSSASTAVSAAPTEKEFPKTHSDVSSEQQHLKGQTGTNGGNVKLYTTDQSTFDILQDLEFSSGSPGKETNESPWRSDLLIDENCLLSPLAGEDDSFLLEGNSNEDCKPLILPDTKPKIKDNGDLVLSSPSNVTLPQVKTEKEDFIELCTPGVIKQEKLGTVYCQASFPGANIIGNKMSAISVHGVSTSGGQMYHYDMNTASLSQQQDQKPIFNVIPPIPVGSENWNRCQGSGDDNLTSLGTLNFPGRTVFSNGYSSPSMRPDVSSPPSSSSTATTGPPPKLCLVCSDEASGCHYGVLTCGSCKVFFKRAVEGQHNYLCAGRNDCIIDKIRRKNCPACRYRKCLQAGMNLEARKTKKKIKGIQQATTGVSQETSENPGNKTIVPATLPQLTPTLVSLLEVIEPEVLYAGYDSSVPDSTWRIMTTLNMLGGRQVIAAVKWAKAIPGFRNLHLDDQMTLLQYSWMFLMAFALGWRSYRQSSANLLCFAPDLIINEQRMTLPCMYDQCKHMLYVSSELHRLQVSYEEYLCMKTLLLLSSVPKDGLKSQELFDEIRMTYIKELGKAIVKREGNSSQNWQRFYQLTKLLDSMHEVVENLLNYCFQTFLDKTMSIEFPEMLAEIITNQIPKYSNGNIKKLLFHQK

[15] = target: Serine/threonine-protein kinase PAK 3 (Homo sapiens) (UniProt O75914); assay: PAK3 Invitrogen kinase panel; settings: Compound concentration 10.0 uM
[16] = target: Beta-2 adrenergic receptor (Homo sapiens) (UniProt P07550); settings: Compound concentration 10.0 uM
[17] = target: Alpha-1A adrenergic receptor (Homo sapiens) (UniProt P35348); settings: Compound concentration 10.0 uM
[18] = target: Casein kinase I isoform epsilon (Homo sapiens) (UniProt P49674); assay: CK1epsilon Invitrogen kinase panel; settings: Compound concentration 10.0 uM
[19] = target: Mu-type opioid receptor (Homo sapiens) (UniProt P35372); assay: Mu (h) CEREP screen; settings: Compound concentration 10.0 uM
[20] = target: Sigma intracellular receptor 2 (Homo sapiens, UniProt Q5BJF2); settings: Compound concentration 10.0 uM
[21] = target: Peroxisome proliferator-activated receptor alpha (Homo sapiens, UniProt Q07869); assay: (§2) PPARalpha In-house nuclear receptor screen
[22] = target: Peroxisome proliferator-activated receptor alpha (Homo sapiens) (UniProt Q07869); assay: as §2; settings: Compound concentration 3.0 uM
[23] = target: Alpha-2B adrenergic receptor (Homo sapiens, UniProt P18089); assay: GPCRScan assay: inhibition of Alpha2B; design: radioligand conc. used [nm] 1.5 – 2.0, parental cells HEKT
[24] = target: Thyroid hormone receptor beta (Homo sapiens) (UniProt P10828); assay: TRbeta Indigo Bioscience nuclear receptor screen; settings: Compound concentration 0.3 uM
[25] = target: Epidermal growth factor receptor (Homo sapiens) (UniProt P00533); assay: EGFR Invitrogen kinase panel; settings: Compound concentration 10.0 uM
[26] = target: Calcium/calmodulin-dependent protein kinase type II subunit beta (Homo sapiens) (UniProt Q13554); assay: CaMKIIbeta Invitrogen kinase panel; settings: Compound concentration 10.0 uM
[27] = target: T3, Nuclear receptor ROR-gamma (Homo sapiens, UniProt P51449); assay: One-hybrid LBD; design: compound concentration 6 uM
[28] = target: 5-hydroxytryptamine receptor 1A (Homo sapiens) (UniProt P08908); settings: Compound concentration 10.0 uM
[29] = target: Fibroblast growth factor receptor 1 (Homo sapiens) (UniProt P11362); assay: FGFR1 Invitrogen kinase panel; settings: Compound concentration 10.0 uM
[30] = target: T3, Nuclear receptor ROR-gamma; assay: Human whole blood assay; assay type: tissue-based; design: compound concentration 10 uM
[31] = target: Cyclin-dependent kinase 5/CDK5 activator 1 (Homo sapiens) (UniProt Q00535+Q15078); assay: CDK5/p35 Invitrogen kinase panel; assay type: protein-complex assay; settings: Compound concentration 10.0 uM
[32] = target: Sigma non-opioid intracellular receptor 1 (Homo sapiens, UniProt Q99720); assay: GPCRScan assay: inhibition of Sigma 1; design: radioligand conc. used [nm] 4.0 – 5.0, parental cells HEKT
Chain of Sigma non-opioid intracellular receptor 1 (Q99720 whole entry): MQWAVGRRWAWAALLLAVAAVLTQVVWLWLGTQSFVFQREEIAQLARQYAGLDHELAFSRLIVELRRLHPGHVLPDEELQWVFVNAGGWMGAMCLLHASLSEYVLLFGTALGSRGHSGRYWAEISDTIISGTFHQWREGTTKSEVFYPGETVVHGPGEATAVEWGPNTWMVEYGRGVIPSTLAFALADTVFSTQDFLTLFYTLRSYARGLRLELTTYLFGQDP

T3 sequence (P51449 whole entry, the tested form may be a part): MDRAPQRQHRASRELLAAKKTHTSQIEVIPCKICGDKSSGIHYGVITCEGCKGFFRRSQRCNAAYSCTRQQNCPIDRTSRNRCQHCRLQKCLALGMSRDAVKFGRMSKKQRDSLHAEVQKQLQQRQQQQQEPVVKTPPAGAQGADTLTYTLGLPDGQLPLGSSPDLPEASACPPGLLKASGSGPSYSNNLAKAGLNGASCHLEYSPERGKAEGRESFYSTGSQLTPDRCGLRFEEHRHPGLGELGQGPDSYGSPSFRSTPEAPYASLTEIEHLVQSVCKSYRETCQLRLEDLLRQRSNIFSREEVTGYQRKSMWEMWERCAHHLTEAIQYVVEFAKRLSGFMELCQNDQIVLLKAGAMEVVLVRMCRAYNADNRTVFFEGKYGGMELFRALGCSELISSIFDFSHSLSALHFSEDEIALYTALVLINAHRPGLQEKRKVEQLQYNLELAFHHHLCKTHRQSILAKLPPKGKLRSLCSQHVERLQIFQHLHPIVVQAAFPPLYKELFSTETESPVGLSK
Chain of Thyroid hormone receptor beta (Homo sapiens) (P10828 whole entry): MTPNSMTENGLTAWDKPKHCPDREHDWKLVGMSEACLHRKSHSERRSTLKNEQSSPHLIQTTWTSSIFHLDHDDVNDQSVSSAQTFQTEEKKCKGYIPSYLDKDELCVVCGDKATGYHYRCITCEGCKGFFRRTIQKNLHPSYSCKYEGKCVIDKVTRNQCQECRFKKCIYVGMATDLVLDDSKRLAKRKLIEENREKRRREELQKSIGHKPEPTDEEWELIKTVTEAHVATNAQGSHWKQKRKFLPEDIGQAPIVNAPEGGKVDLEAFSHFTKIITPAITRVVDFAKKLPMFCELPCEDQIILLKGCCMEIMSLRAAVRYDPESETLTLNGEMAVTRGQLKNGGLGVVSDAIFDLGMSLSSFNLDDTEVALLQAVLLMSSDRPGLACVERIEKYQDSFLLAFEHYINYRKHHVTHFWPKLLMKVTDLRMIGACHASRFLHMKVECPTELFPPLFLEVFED
Chain of D(1B) dopamine receptor (Homo sapiens) (P21918 whole entry): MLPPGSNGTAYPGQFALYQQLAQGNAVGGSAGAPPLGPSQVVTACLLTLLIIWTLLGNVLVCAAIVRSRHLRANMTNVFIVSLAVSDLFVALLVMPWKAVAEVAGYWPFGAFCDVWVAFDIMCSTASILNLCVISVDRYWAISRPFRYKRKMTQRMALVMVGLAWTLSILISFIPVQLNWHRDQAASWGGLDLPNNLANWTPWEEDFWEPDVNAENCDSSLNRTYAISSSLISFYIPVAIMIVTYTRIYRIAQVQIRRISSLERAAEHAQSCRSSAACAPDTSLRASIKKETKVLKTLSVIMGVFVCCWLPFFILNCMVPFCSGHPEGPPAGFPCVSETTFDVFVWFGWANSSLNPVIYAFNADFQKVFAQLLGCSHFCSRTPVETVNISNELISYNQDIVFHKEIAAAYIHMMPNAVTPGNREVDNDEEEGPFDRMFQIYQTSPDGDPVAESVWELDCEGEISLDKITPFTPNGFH
Chain of Mu-type opioid receptor (Homo sapiens) (P35372 whole entry): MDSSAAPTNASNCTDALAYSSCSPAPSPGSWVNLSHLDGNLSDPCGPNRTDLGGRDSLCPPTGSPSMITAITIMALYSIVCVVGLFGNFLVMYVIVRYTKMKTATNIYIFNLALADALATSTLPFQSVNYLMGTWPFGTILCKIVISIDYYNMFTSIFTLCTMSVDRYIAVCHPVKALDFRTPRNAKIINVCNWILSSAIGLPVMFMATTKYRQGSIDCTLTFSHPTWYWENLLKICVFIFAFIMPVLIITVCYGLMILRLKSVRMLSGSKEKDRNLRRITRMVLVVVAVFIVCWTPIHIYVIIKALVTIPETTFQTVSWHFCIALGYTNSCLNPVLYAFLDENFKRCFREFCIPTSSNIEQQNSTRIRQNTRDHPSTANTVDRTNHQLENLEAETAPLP
Chain of Dual specificity protein kinase CLK2 (Homo sapiens) (P49760 whole entry, looked up): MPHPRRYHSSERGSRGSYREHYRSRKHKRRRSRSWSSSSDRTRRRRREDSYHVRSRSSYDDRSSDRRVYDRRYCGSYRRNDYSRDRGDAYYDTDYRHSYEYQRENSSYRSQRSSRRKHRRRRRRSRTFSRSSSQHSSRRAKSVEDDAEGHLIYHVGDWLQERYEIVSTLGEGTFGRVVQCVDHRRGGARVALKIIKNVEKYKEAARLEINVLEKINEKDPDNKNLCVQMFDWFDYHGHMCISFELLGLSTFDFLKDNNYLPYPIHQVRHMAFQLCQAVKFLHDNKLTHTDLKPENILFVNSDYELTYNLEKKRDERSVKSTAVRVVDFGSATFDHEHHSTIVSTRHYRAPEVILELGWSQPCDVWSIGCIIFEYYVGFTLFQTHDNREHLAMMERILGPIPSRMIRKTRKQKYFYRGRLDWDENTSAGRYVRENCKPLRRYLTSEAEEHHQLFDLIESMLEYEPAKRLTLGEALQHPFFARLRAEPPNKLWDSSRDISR
Chain of D(4) dopamine receptor (Homo sapiens) (P21917 whole entry): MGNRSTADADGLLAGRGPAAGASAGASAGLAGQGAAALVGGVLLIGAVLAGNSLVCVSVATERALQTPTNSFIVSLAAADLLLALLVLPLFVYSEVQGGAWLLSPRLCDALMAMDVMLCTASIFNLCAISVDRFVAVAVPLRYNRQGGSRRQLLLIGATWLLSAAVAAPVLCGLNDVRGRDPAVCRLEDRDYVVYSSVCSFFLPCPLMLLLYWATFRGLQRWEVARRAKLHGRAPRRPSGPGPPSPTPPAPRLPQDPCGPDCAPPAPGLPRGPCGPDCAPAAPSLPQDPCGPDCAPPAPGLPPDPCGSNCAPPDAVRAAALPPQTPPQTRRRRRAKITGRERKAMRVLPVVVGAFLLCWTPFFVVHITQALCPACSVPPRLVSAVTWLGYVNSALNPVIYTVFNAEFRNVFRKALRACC
Chain of 5-hydroxytryptamine receptor 2C (Homo sapiens) (P28335 whole entry): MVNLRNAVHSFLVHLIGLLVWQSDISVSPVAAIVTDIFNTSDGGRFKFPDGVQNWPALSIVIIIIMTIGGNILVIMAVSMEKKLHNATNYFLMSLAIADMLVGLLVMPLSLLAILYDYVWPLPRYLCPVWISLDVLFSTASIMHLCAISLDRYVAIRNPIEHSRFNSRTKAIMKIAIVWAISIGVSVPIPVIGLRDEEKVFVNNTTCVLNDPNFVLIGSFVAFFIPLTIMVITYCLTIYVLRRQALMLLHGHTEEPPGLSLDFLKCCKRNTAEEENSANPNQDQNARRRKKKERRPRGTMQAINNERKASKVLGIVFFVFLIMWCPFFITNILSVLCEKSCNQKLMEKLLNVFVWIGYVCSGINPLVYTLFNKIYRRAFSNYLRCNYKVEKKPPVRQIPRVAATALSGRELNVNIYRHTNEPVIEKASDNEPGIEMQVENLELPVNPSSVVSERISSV
Chain of Serine/threonine-protein kinase PAK 4 (Homo sapiens) (O96013 whole entry, looked up): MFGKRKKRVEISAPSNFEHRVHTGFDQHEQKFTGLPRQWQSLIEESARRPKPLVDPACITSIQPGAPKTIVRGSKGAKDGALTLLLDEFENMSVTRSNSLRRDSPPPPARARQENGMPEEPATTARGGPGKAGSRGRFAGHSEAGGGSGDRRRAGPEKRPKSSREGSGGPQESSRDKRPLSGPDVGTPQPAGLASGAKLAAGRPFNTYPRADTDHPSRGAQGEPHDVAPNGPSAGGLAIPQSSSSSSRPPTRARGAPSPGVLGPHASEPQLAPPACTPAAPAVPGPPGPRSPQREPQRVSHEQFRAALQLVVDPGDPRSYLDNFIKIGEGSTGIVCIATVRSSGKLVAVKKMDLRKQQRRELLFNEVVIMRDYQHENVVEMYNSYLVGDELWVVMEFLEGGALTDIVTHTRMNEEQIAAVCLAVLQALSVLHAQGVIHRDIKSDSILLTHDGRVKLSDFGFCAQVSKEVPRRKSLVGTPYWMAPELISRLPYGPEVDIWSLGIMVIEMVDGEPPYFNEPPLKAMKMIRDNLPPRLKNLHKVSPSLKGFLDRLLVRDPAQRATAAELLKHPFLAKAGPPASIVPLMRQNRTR
Chain of Alpha-1A adrenergic receptor (Homo sapiens) (P35348 whole entry, canonical isoform): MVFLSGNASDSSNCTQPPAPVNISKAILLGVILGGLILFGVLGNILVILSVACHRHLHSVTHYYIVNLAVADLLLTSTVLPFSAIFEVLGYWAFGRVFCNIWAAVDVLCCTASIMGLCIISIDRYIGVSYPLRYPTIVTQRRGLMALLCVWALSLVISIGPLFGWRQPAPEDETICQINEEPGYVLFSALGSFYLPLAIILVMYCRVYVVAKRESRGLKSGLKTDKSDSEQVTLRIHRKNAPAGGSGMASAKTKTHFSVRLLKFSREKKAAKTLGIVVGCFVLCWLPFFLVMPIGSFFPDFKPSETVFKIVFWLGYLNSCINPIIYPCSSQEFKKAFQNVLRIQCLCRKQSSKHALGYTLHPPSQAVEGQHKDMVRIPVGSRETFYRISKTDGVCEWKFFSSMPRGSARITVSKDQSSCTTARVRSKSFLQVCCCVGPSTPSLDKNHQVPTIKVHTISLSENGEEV
Chain of Beta-2 adrenergic receptor (Homo sapiens) (P07550 whole entry, looked up): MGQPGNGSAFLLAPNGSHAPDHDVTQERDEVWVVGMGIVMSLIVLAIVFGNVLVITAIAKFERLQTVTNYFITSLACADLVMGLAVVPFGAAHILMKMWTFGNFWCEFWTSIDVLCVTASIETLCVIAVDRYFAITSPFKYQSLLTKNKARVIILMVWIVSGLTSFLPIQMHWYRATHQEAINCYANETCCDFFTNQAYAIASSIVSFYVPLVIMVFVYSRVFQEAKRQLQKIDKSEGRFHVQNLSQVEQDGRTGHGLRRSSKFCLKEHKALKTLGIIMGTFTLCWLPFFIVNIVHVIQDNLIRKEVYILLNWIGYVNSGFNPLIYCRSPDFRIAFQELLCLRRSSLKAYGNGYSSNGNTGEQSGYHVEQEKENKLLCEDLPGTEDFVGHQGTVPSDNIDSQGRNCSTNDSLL

- inhibition [1]: 31.2%
- inhibition [2]: 4%
- inhibition [3]: 2%
- inhibition [4]: 4%
- inhibition [5]: 4%
- inhibition ([6]; Compound concentration 1.0 uM): 12%
- inhibition ([6]; Compound concentration 10.0 uM): 21%
- inhibition [7]: -5.45%
- inhibition [8]: 8.8%
- inhibition [9]: -5.63%
- inhibition [10]: 21.2%
- inhibition [11]: 4%
- inhibition [12]: 33.9%
- inhibition [13]: 6.87%
- IC50 (Glucocorticoid receptor): ~6 µM
- inhibition [14]: 13%
- inhibition [15]: 6%
- inhibition [16]: 15.6%
- inhibition [17]: 10.3%
- inhibition [18]: 0%
- inhibition [19]: 15%
- inhibition [20]: 65.8%
- IC50 [21]: ~5 µM
- inhibition [22]: 17%
- Ki [23]: 9.22 µM
- inhibition [24]: 1.13%
- inhibition [25]: -4%
- inhibition [26]: 7%
- IC50 [27]: 30 nM (active)
- inhibition [28]: 16.6%
- inhibition [29]: -2%
- IC50 [30]: 332 nM (active)
- inhibition [31]: -2%
- Ki ([32]; read-out: Ki): 3.13 µM
- Ki ([32]; read-out: pKi (converted)): 3.02 µM
Structure (SMILES): COc1nc2ccc([C@@](O)(c3ccccc3)C3CCN(C(C)=O)CC3)cc2c(Cl)c1Cc1ccc(-n2cccn2)cc1 [JNJ-54119936]
